Molecular target: T1, TGFβ R1 (Homo sapiens, UniProt P36897)
T1 sequence (P36897 34-503): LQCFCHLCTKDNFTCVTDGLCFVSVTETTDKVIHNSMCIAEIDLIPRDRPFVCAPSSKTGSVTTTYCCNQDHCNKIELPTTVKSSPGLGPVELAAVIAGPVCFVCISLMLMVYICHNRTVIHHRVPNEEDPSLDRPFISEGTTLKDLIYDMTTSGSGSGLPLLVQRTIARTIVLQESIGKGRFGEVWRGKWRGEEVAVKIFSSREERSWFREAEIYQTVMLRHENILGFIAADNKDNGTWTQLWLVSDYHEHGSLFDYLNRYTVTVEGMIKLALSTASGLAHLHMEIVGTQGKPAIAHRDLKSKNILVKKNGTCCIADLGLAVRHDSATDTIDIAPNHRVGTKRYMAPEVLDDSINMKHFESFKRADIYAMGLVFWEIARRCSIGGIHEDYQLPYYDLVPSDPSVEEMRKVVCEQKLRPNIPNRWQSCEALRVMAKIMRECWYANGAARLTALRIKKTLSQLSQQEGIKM
Experiment: TGFβ R1 autophosphorylation protocol (33P-ATP, phosphocellulose filter plate)
Type: biochemical
Conditions: 10 uM ATP, 170 nM TGFβ R1, 20 minutes at room temperature, read-out: IC50 for Kinase Inhibition
Procedure, shortened: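 Incorporation of 33P from γ-33P-ATP (10 uM ATP final) into the kinase itself (170 nM) measured by phosphocellulose capture and scintillation counting. Incubation 20 min at room temperature in 20 mM MOPS pH 7 with […]; final DMSO ≤1%.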

Row | SMILES | IC50 [nM]
1 | COc1cnc(-c2cc(Cl)ccc2F)nc1Nc1ccncc1C(=O)NCCNCCC1O[C@H](CO)[C@@H](O)[C@H](O)[C@H]1O (stereo partly shown) [Compound 136, 4-[2-(5-Chloro-2-fluoro-phenyl)-5-methoxy-pyrimidin-4-ylamino]-N-{2-[2-(3,4,5-trihydroxy-6-hydroxymethyl-tetrahydro-pyran-2-yl)-ethylamino]-ethyl}-nicotinamide] | 7
2 | COc1cnc(-c2cc(Cl)ccc2F)nc1Nc1ccncc1C(=O)NC1CCN(C(=O)CC2O[C@H](CO)[C@@H](O)[C@H](O)[C@H]2O)CC1 (stereo partly shown) [Compound 148, 4-[2-(5-Chloro-2-fluoro-phenyl)-5-methoxy-pyrimidin-4-ylamino]-N-{1-[2-(3,4,5-trihydroxy-6-hydroxymethyl-tetrahydro-pyran-2-yl)-acetyl]-piperidin-4-yl}-nicotinamide] | 207
3 | O=C(NC1CC1)c1cnccc1Nc1nc(-c2cc(Cl)ccc2F)ncc1Br [Compound 108, 4-[5-Bromo-2-(5-chloro-2-fluoro-phenyl)-pyrimidin-4-ylamino]-N-cyclopropyl-nicotinamide] | 2500
4 | COc1cnc(-c2cc(Cl)ccc2F)nc1Nc1ccncc1C(=O)NCCCNC(=O)Nc1ccc2c(c1)OCO2 [Compound 76, N-[3-(3-Benzo[1,3]dioxol-5-yl-ureido)-propyl]-4-[2-(5-chloro-2-fluoro-phenyl)-5-methoxy-pyrimidin-4-ylamino]-nicotinamide] | 320
5 | NC(=O)c1cnccc1Nc1nc(-c2cc(Cl)ccc2F)ncc1I [Compound 78, 4-[2-(5-Chloro-2-fluoro-phenyl)-5-iodo-pyrimidin-4-ylamino]-nicotinamide] | 10
6 | CC(C)c1cnc(-c2cc(Cl)ccc2F)nc1Nc1ccncc1C(=O)NC1CNC1 [Compound 111, N-Azetidin-3-yl-4-[2-(5-chloro-2-fluoro-phenyl)-5-isopropyl-pyrimidin-4-ylamino]-nicotinamide] | 20
7 | COc1cnc(-c2cc(Cl)ccc2F)nc1Nc1ccncc1C(=O)NCCCNC(=O)COC1O[C@H](COC(C)=O)[C@@H](OC(C)=O)[C@H](OC(C)=O)[C@H]1OC(C)=O (stereo partly shown) [Compound 133] | 327
8 | COc1cnc(-c2cc(Cl)ccc2F)nc1Nc1cc[n+]([O-])cc1C(=O)NC1CC1 [Compound 114, 4-[2-(5-Chloro-2-fluoro-phenyl)-5-methoxy-pyrimidin-4-ylamino]-N-cyclopropyl-1-oxy-nicotinamide] | 3080
9 | CNC(=O)NCCCNC(=O)c1cnccc1Nc1nc(-c2cc(Cl)ccc2F)ncc1OC [Compound 74, 4-[2-(5-Chloro-2-fluoro-phenyl)-5-methoxy-pyrimidin-4-ylamino]-N-[3-(3-methyl-ureido)-propyl]-nicotinamide] | 150
10 | COc1cnc(-c2cc(Cl)ccc2F)nc1Nc1ccncc1C(=O)NCCCN1CCOCC1 [Compound 9, 4-[2-(5-Chloro-2-fluoro-phenyl)-5-methoxy-pyrimidin-4-ylamino]-N-(3-morpholin-4-yl-propyl)-nicotinamide] | 30
11 | COc1cnc(-c2cc(Cl)ccc2F)nc1Nc1ccncc1C(=O)NCCCNC(C)=O [Compound 94, N-(3-Acetylamino-propyl)-4-[2-(5-chloro-2-fluoro-phenyl)-5-methoxy-pyrimidin-4-ylamino]-nicotinamide] | 1340
12 | COc1cnc(-c2cc(Cl)ccc2F)nc1Nc1ccncc1C(=O)NCCCN1CC[C@H](O)C1 [Compound 109, 4-[2-(5-Chloro-2-fluoro-phenyl)-5-methoxy-pyrimidin-4-ylamino]-N-[3-(3-hydroxy-pyrolidin-1-yl)-propyl]-nicotinamide] | 330
13 | COc1cnc(-c2cc(Cl)ccc2F)nc1Nc1ccncc1C(=O)N[C@@H]1CCOC1=O [Compound 62, 4-[2-(5-Chloro-2-fluoro-phenyl)-5-methoxy-pyrimidin-4-ylamino]-N-(2-oxo-tetrahydro-furan-3-yl)-nicotinamide] | 360
14 | COc1cnc(-c2cc(Cl)ccc2F)nc1Nc1ccncc1C(=O)NCCNCCOC1O[C@H](CO)[C@@H](O)[C@H](O)[C@H]1O (stereo partly shown) [Compound 144, 4-[2-(5-chloro-2-fluoro-phenyl)-5-methoxy-pyrimidin-4-ylamino]-N-{2-[2-(3,4,5-trihydroxy-6-hydroxymethyl-tetrahydro-pyran-2-yloxy)-ethylamino]-ethyl)-nicotinamide] | 10
15 | COc1cnc(-c2cc(Cl)ccc2F)nc1Nc1ccncc1C(=O)NCCC(N)=O [Compound 70, N-(2-Carbamoyl-ethyl)-4-[2-(5-choro-2-fluoro-phenyl)-5-methoxy-pyrimidin-4-ylamino]-nicotinamide] | 200
16 | COc1cnc(-c2cc(Cl)ccc2F)nc1Nc1ccncc1C(=O)NCC(=O)O [Compound 2, ({4-[2-(5-Chloro-2-fluoro-phenyl)-5-methoxy-pyrimidin-4-ylamino]-pyridine 3-carbonyl}-amino)-acetic acid] | 920

Same assay, conditions: 10 uM ATP, 170 nM TGFβ R1, room temperature 20 minutes, read-out: IC50 for Kinase Inhibition

Row | SMILES | IC50 [nM]
17 | COCC(COC)NC(=O)c1cnccc1Nc1nc(-c2cc(Cl)ccc2F)ncc1C(C)C [Compound 195, 4-[2-(5-Chloro-2-fluoro-phenyl)-5-isopropyl-pyrimidin-4-ylamino]-N-(2-methoxy-1-methoxymethyl-ethyl)-nicotinamide] | 424
18 | CC(C)c1cnc(-c2cc(Cl)ccc2F)nc1Nc1ccncc1C(=O)N1CC[C@@H](F)C1 [Compound 210, {4-[2-(5-Chloro-2-fluoro-phenyl)-5-isopropyl-pyrimidin-4-ylamino]-pyridin-3-yl}-(3-fluoro-pyrrolidin-1-yl)-methanone] | 121
19 | COc1cnc(-c2cc(Cl)ccc2F)nc1Nc1ccncc1C(=O)NCCNCC[C@@H]1OC[C@@H](O)[C@H](O)[C@H]1O [Compound 170, 4-[2-(5-Chloro-2-fluoro-phenyl)-5-methoxy-pyrimidin-4-ylamino]-N-{2-[2-(3,4,5-trihydroxy-tetrahydro-pyran-2-yl)-ethylamino]-ethyl}-nicotinamide] | 6
20 | CC(C)c1cnc(-c2cc(Cl)ccc2F)nc1Nc1ccncc1C(=O)N1CCC(O)CC1 [Compound 230, {4-[2-(5-Chloro-2-fluoro-phenyl)-5-isopropyl-pyrimidin-4-ylamino)-pyridin-3-yl}-(4-hydroxy-piperidin-1-yl)-methanone] | 1140
21 | COc1cnc(-c2cc(Cl)ccc2F)nc1Nc1ccncc1C(=O)NCCNCCOC1O[C@@H](CO)[C@H](O)[C@@H](O)[C@@H]1O (stereo partly shown) [Compound 185] | 9
22 | O=C(NCCCn1ccnc1)c1cnccc1Nc1nc(-c2cc(Cl)ccc2F)ncc1C1CCCC1 [Compound 219] | 44
23 | CC(C)c1cnc(-c2cc(Cl)ccc2F)nc1Nc1ccncc1C(=O)NC[C@H](C)OC(=O)[C@@H](C)N [Compound 205, 2-Amino-propionic acid 2-({4-[2-(5-chloro-2-fluoro-phenyl)-5-isopropyl-pyrimidin-4-ylamino]-pyridine-3-carbonyl}-amino)-1-methyl-ethyl ester] | 10
24 | CC(C)c1cnc(-c2cc(Cl)ccc2F)nc1Nc1cc[n+]([O-])cc1C(=O)NCC(C)(C)O [Compound 196, 4-[2-(5-Chloro-2-fluoro-phenyl)-5-isopropyl-pyrimidin-4-ylamino]-N-(2-hydroxy-2-methyl-propyl)-1-oxy-nicotinamide] | 245
25 | COc1cnc(-c2cc(Cl)ccc2F)nc1Nc1ccncc1C(=O)NC1(CO)CC1 [Compound 162, 4-[2-(5-Chloro-2-fluoro-phenyl)-5-methoxy-pyrimidin-4-ylamino]-N-(1-hydroxymethyl-cyclopropyl)-nicotinamide] | 42
26 | CC(C)c1cnc(-c2cc(Cl)ccc2F)nc1Nc1ccncc1C(=O)N[C@H]1CCC[C@@H]1O (stereo in doubt) [Compound 235, 4-[2-(5-Chloro-2-fluoro-phenyl)-5-isopropyl-pyrimidin-4-ylamino]-N-(2-hydroxy-cyclopentyl)-nicotinamide] | 40
27 | CC(C)(O)CNC(=O)c1cnccc1Nc1nc(-c2cc(Cl)ccc2F)ncc1C1CC1 [Compound 165] | 27
28 | CC(C)c1cnc(-c2cc(Cl)ccc2F)nc1Nc1ccncc1C(=O)NC[C@H](C)OC(=O)[C@H](N)C(C)C [Compound 207, 2-Amino-3-methyl-butyric acid 2-({4-[2-(5-chloro-2-fluoro-phenyl)-5-isopropyl-pyrimidin-4-ylamino]-pyridine-3-carbonyl}-amino)-1-methyl-ethyl-ester] | 17
29 | COc1cnc(-c2cc(Cl)ccc2F)nc1Nc1ccncc1C(=O)NCCCOCC(O)CO (stereo not shown) [Compound 163, 4-[2-(5-Chloro-2-fluoro-phenyl)-5-methoxy-pyrimidin-4-ylamino]-N-[3-(2,3-dihydroxy-propoxy)-propyl]-nicotinamide] | 33
30 | O=C(c1cnccc1Nc1nc(-c2cc(Cl)ccc2F)ncc1C1CCCC1)N1CC[C@H](O)C1 [Compound 212, {4-[2-(5-chloro-2-fluoro-phenyl)-5-cyclopentyl-pyrimidin-4-ylamino]-pyridin-3-yl}(3-hydroxy-pyrrolidin-1-yl)-methanone] | 673
31 | CC(C)c1cnc(-c2cc(Cl)ccc2F)nc1Nc1ccncc1C(=O)NCCCN1CCC[C@H]1CO [Compound 164, 4-[2-(5-Chloro-2-fluoro-phenyl)-5-isopropyl-pyrimidin-4-ylamino]-N-[3-(2-hydroxymethyl-pyrrolidin-1-yl)-propyl]-nicotinamide] | 2
